Source: patent US7427625B2, “Substituted thiatriazaacenaphthylene-6-carbonitrile kinase inhibitors” (Janssen Pharmaceutica, N.V., priority 2006, dated 2008)

How the values were obtained:
Assay type in all cases: biochemical
VEGF-R2 = biological target: T1, VEGF-R2 (Rattus norvegicus, UniProt O08775); assay: VEGF-R2 Screening Assay
T1 construct: polyhistidine (N)

EGFR = biological target: T2, EGFR (Homo sapiens, UniProt P00533); assay: EGFR Kinase Assay; conditions: for inhibition at 2 µM: test concentration of 2 μM, read-out: EGFR percent inhibition
T2 construct: The intracellular portion of EGFR started at nucleotide 2189 (corresponding to amino acid 667) and ended at the termination codon; made in house; host or cells: Sf9 insect cells (baculovirus)
Summary of the method: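 GST-fused EGFR intracellular domain (aa 667 to end), Sf9-expressed, phosphorylating biotinylated polyGluTyr with 5 μM ATP plus γ-33P ATP in Tris pH 8.0, MgCl2, vanadate, 1 mM DTT; 1 h, 30 °C, streptavidin Flashplate scintillation read. Triplicate 16-point half-log series from 200 uM; IC50 from % inhibition vs log concentration, else % inhibition at 2 μM.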

HER-2 = biological target: T3, HER-2 (Homo sapiens, UniProt P04626); assay: HER-2 Kinase Assay
T3 construct: the nucleotides encoding amino acids 679 to 1255 of HER-2; purchased Proqinase (Freiburg, Germany)
Summary of the method: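 GST-HIS6-thrombin fusion of HER-2 residues 679–1255, assayed with biotinylated polyGluTyr, 1 μM ATP plus γ-33P-ATP, Mg2+, Mn2+ and vanadate in Hepes pH 7.5 for 1 h at 30 °C. Incorporation read by streptavidin Flashplate scintillation counting; IC50 values, or % inhibition at 1 μM.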

T3 sequence (P04626 679-1255): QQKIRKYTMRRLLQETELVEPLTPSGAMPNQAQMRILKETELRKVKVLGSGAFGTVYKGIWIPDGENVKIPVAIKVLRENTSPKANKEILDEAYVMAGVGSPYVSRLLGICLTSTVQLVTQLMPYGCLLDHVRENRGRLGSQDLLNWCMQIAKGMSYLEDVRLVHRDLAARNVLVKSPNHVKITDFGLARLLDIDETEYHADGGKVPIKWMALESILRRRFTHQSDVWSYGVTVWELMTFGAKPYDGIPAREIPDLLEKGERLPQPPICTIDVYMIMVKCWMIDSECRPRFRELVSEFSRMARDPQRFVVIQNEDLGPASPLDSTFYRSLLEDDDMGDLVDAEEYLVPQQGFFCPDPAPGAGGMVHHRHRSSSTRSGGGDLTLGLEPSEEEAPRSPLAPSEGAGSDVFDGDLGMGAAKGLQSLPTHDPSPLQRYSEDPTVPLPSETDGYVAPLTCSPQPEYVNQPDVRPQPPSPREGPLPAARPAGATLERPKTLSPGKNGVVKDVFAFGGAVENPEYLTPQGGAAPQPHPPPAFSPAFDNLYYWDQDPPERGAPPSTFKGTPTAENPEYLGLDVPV
T1 sequence (O08775 786-1343): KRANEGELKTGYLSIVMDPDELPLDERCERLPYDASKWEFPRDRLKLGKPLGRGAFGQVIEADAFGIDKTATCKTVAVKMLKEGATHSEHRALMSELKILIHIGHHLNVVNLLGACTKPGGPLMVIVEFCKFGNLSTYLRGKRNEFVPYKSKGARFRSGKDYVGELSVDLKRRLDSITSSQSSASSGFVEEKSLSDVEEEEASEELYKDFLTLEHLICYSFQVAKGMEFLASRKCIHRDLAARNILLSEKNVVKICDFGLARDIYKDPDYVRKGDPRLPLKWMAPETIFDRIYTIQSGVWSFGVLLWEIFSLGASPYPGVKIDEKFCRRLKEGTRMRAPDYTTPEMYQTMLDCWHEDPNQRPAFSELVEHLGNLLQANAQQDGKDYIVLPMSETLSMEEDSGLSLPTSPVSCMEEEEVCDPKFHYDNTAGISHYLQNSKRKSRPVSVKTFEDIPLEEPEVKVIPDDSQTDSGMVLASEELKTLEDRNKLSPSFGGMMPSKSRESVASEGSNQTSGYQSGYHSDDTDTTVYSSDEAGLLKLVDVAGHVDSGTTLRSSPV
T2 sequence (P00533 669-1210 limits assumed): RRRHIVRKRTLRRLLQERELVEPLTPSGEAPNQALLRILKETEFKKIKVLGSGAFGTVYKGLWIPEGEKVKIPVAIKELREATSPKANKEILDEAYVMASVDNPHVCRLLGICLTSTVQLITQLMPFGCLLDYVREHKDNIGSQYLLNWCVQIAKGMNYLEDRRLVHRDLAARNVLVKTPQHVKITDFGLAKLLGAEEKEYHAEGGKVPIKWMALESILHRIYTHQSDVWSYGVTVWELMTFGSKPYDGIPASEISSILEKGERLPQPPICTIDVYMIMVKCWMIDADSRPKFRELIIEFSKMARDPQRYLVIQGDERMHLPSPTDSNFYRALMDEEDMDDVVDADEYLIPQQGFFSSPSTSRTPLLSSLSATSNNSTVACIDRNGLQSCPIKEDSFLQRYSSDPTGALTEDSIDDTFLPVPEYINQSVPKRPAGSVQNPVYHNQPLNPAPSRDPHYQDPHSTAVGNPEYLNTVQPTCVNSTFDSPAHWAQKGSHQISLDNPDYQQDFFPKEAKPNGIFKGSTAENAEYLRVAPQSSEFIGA

Row | IC50 (VEGF-R2) [µM] | inhibition at 2 µM (EGFR) [%] | IC50 (HER-2) [µM] | IC50 (EGFR) [µM] | inhibition at 1 µM (HER-2; test concentration of 1 μM, read-out: HER-2 percent inhibition) [%] | Compound
1 | > 10 | 36 | 5.35 | – | – | N#Cc1cnc2sc(C(=O)Nc3ccc(CN4CCOCC4)cc3)c3c2c1N(c1c(Cl)ccc2c1OCO2)C(=O)N3 [Cpd 4, 5-(5-chloro-benzo[1,3]dioxol-4-yl)-6-cyano-4-oxo-4,5-dihydro-3H-1-thia-3,5,8-triaza-acenaphthylene-2-carboxylic acid (4-morpholin-4-ylmethyl-phenyl)-amide]
2 | > 100 | 7 | ~100 | – | – | COc1cc(N2C(=O)Nc3c(C(=O)Nc4ccc(CCN5CCOCC5)cc4)sc4ncc(C#N)c2c34)c(Cl)cc1Cl [Cpd 6, 6-cyano-5-(2,4-dichloro-5-methoxy-phenyl)-4-oxo-4,5-dihydro-3H-1-thia-3,5,8-triaza-acenaphthylene-2-carboxylic acid [4-(2-morpholin-4-yl-ethyl)-phenyl]-amide]
3 | > 10 | 14 | > 10 | – | – | Cc1nc2sc(C(=O)Nc3ccc(CN4CCOCC4)cc3)c3c2c(c1C#N)N(c1c(Cl)ccc2c1OCO2)C(=O)N3 [Cpd 9, 5-(5-chloro-benzo[1,3]dioxol-4-yl)-6-cyano-7-methyl-4-oxo-4,5-dihydro-3H-1-thia-3,5,8-triaza-acenaphthylene-2-carboxylic acid (4-morpholin-4-ylmethyl-phenyl)-amide]
4 | ~100 | – | 7.16 | 3.96 | – | CN1CCC(NC(=O)c2sc3ncc(C#N)c4c3c2NC(=O)N4c2c(Cl)ccc3c2OCO3)CC1 [Cpd 10, 5-(5-chloro-benzo[1,3]dioxol-4-yl)-6-cyano-4-oxo-4,5-dihydro-3H-1-thia-3,5,8-triaza-acenaphthylene-2-carboxylic acid (1-methyl-piperidin-4-yl)-amide]
5 | > 100 | – | 2.91 | 1.6 | – | N#Cc1cnc2sc(C(=O)Nc3ccc(CCN4CCCCC4)cc3)c3c2c1N(c1c(Cl)ccc2c1OCO2)C(=O)N3 [Cpd 11, 5-(5-chloro-benzo[1,3]dioxol-4-yl)-6-cyano-4-oxo-4,5-dihydro-3H-1-thia-3,5,8-triaza-acenaphthylene-2-carboxylic acid [4-(2-piperidin-1-yl-ethyl)-phenyl]-amide]
6 | > 100 | – | 5.55 | 2.7 | – | CN1CCN(CCc2ccc(NC(=O)c3sc4ncc(C#N)c5c4c3NC(=O)N5c3c(Cl)ccc4c3OCO4)cc2)CC1 [Cpd 12, 5-(5-chloro-benzo[1,3]dioxol-4-yl)-6-cyano-4-oxo-4,5-dihydro-3H-1-thia-3,5,8-triaza-acenaphthylene-2-carboxylic acid {4-[2-(4-methyl-piperazin-1-yl)-ethyl]-phenyl}-amide]
7 | > 10 | 23 | > 1 | – | – | N#Cc1cnc2sc(C(=O)Nc3ccc(CCN4CCOCC4)cc3)c3c2c1N(c1c(Cl)ccc2c1OCO2)C(=O)N3 [Cpd 13, 5-(5-chloro-benzo[1,3]dioxol-4-yl)-6-cyano-4-oxo-4,5-dihydro-3H-1-thia-3,5,8-triaza-acenaphthylene-2-carboxylic acid [4-(2-morpholin-4-yl-ethyl)-phenyl]-amide]
8 | > 10 | 38 | 1.23 | – | – | COC1CCN(Cc2ccc(NC(=O)c3sc4ncc(C#N)c5c4c3NC(=O)N5c3c(Cl)ccc4c3OCO4)cc2)CC1 [Cpd 18, 5-(5-chloro-benzo[1,3]dioxol-4-yl)-6-cyano-4-oxo-4,5-dihydro-3H-1-thia-3,5,8-triaza-acenaphthylene-2-carboxylic acid [4-(4-methoxy-piperidin-1-ylmethyl)-phenyl]-amide]
9 | > 100 | – | – | 0.624 | 49 | CC1CCN(Cc2ccc(NC(=O)c3sc4ncc(C#N)c5c4c3NC(=O)N5c3c(Cl)ccc4c3OCO4)cc2)CC1 [Cpd 19, 5-(5-chloro-benzo[1,3]dioxol-4-yl)-6-cyano-4-oxo-4,5-dihydro-3H-1-thia-3,5,8-triaza-acenaphthylene-2-carboxylic acid [4-(4-methyl-piperidin-1-ylmethyl)-phenyl]-amide]
10 | > 100 | – | > 1 | 0.85 | – | CN(C)C1CCN(Cc2ccc(NC(=O)c3sc4ncc(C#N)c5c4c3NC(=O)N5c3c(Cl)ccc4c3OCO4)cc2)CC1 [Cpd 42, 5-(5-chloro-benzo[1,3]dioxol-4-yl)-6-cyano-4-oxo-4,5-dihydro-3H-1-thia-3,5,8-triaza-acenaphthylene-2-carboxylic acid [4-(4-dimethylamino-piperidin-1-ylmethyl)-phenyl]-amide]
11 | > 100 | – | 0.134 | 0.152 | – | CC(C)(C)OC(=O)NC1CCN(Cc2ccc(NC(=O)c3sc4ncc(C#N)c5c4c3NC(=O)N5c3c(Cl)ccc4c3OCO4)cc2)CC1 [Cpd 46, [1-(4-{[5-(5-chloro-benzo[1,3]dioxol-4-yl)-6-cyano-4-oxo-4,5-dihydro-3H-1-thia-3,5,8-triaza-acenaphthylene-2-carbonyl]-amino}-benzyl)-piperidin-4-yl]-carbamic acid tert-butyl ester]
12 | > 100 | 39 | > 10 | – | – | N#Cc1cnc2sc(C(=O)Nc3ccc(CCN4CCCCC4)cc3)c3c2c1N(c1ccc(Oc2ccccc2)cc1)C(=O)N3 [Cpd 48, 6-cyano-4-oxo-5-(4-phenoxy-phenyl)-4,5-dihydro-3H-1-thia-3,5,8-triaza-acenaphthylene-2-carboxylic acid [4-(2-piperidin-1-yl-ethyl)-phenyl]-amide]

The remaining lines, values behind:

Row | Compound | IC50 (VEGF-R2) [µM] | inhibition at 2 µM (EGFR) [%] | IC50 (HER-2) [µM] | IC50 (EGFR) [µM] | inhibition at 1 µM (HER-2; test concentration of 1 μM, read-out: HER-2 percent inhibition) [%]
13 | COc1cc(N2C(=O)Nc3c(C(=O)Nc4ccc(CN5CCOCC5)cc4)sc4ncc(C#N)c2c34)c(Cl)cc1Cl [Cpd 5, 6-cyano-5-(2,4-dichloro-5-methoxy-phenyl)-4-oxo-4,5-dihydro-3H-1-thia-3,5,8-triaza-acenaphthylene-2-carboxylic acid (4-morpholin-4-ylmethyl-phenyl)-amide] | > 100 | 1 | > 10 | – | –
14 | CCOC(=O)c1sc2nc(N3CCOCC3)c(C#N)c3c2c1NC(=O)N3c1c(Cl)ccc2c1OCO2 [Cpd 7, 5-(5-chloro-benzo[1,3]dioxol-4-yl)-6-cyano-7-morpholin-4-yl-4-oxo-4,5-dihydro-3H-1-thia-3,5,8-triaza-acenaphthylene-2-carboxylic acid ethyl ester] | > 100 | -5 | > 100 | – | –
15 | N#Cc1c(N2CCOCC2)nc2sc(C(=O)Nc3ccc(CN4CCOCC4)cc3)c3c2c1N(c1c(Cl)ccc2c1OCO2)C(=O)N3 [Cpd 8, 5-(5-chloro-benzo[1,3]dioxol-4-yl)-6-cyano-7-morpholin-4-yl-4-oxo-4,5-dihydro-3H-1-thia-3,5,8-triaza-acenaphthylene-2-carboxylic acid (4-morpholin-4-ylmethyl-phenyl)-amide] | 14.1 | -6 | ~100 | – | –
16 | CCOC(=O)c1sc2nc(O)c(C#N)c3c2c1NC(=O)N3c1ccncc1 [Cpd 14, 6-cyano-7-hydroxy-4-oxo-5-pyridin-4-yl-4,5-dihydro-3H-1-thia-3,5,8-triaza-acenaphthylene-2-carboxylic acid ethyl ester] | > 100 | -9 | > 100 | – | –
17 | CCOC(=O)c1sc2nc(-c3cc(F)ccc3Cl)c(C#N)c3c2c1NC(=O)N3c1ccncc1 [Cpd 15, 7-(2-chloro-5-fluoro-phenyl)-6-cyano-4-oxo-5-pyridin-4-yl-4,5-dihydro-3H-1-thia-3,5,8-triaza-acenaphthylene-2-carboxylic acid ethyl ester] | > 100 | 6 | > 100 | – | –
18 | CN(C)C1CCN(C(=O)c2sc3ncc(C#N)c4c3c2NC(=O)N4c2c(Cl)ccc3c2OCO3)CC1 [Cpd 41, 5-(5-chloro-benzo[1,3]dioxol-4-yl)-2-(4-dimethylamino-piperidine-1-carbonyl)-4-oxo-4,5-dihydro-3H-1-thia-3,5,8-triaza-acenaphthylene-6-carbonitrile] | > 100 | 7 | 13.5 | – | –
19 | COc1cc(NC(=O)c2sc3ncc(C#N)c4c3c2NC(=O)N4c2ccc(Oc3ccccc3)cc2)ccc1CN1CCOCC1 [Cpd 45, 6-cyano-4-oxo-5-(4-phenoxy-phenyl)-4,5-dihydro-3H-1-thia-3,5,8-triaza-acenaphthylene-2-carboxylic acid (3-methoxy-4-morpholin-4-ylmethyl-phenyl)-amide] | > 100 | – | 0.0836 | 0.093 | –
20 | N#Cc1cnc2sc(C(=O)Nc3ccc(CN4CCCCC4)cc3)c3c2c1N(c1ccc(Oc2ccccc2)cc1)C(=O)N3 [Cpd 49, 6-cyano-4-oxo-5-(4-phenoxy-phenyl)-4,5-dihydro-3H-1-thia-3,5,8-triaza-acenaphthylene-2-carboxylic acid (4-piperidin-1-ylmethyl-phenyl)-amide] | > 100 | – | 0.836 | 0.224 | –
